Laboratory results published in US20230278972A1, “SUBSTITUTED HALOALKYL SULFONANILIDE HERBICIDES” (FMC Corporation, priority 2020, published 2023).

Key:
Assay type in all cases: in vivo
[1] = test system: corn (Zea mays); assay: Test A postemergence, corn; conditions: Postemergence, 0 to 100 scale (0 no effect, 100 complete control); for Corn plant response rating: 500 g ai/ha, visual injury vs untreated controls after approx. 10 days
Method in brief: (§1)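 Greenhouse pot test in a loam–sand blend; compounds delivered in a non-phytotoxic solvent carrying a surfactant, applied either as a directed spray to soil at seeding or over seedlings 2 to 10 cm high with one to two leaves.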

[2] = test system: blackgrass (Alopecurus myosuroides); assay: Test A postemergence, blackgrass; conditions: Postemergence, 0 to 100 scale (0 no effect, 100 complete control); for Blackgrass plant response rating: 500 g ai/ha, visual injury vs untreated controls after approx. 10 days
Method in brief: as §1

[3] = test system: Ryegrass, Italian (Italian ryegrass, Lolium multiflorum); assay: Test A preemergence, Ryegrass, Italian; conditions: Preemergence; for Plant response rating, Ryegrass, Italian: 0 to 100 scale (0 no effect, 100 complete control); for Ryegrass, Italian plant response rating: visual injury on 0 to 100 scale (0 no effect, 100 complete control), approximately 10 days
Method in brief: as §1

[4] = test system: Foxtail, Giant (giant foxtail, Setaria faberi); assay: Test A preemergence, Foxtail, Giant; conditions: Preemergence; for Plant response rating, Foxtail, Giant: 0 to 100 scale (0 no effect, 100 complete control); for Foxtail, Giant plant response rating: visual injury on 0 to 100 scale (0 no effect, 100 complete control), approximately 10 days
Method in brief: as §1

[5] = test system: wheat (Triticum aestivum); assay: Test A postemergence, wheat; conditions: Postemergence, 0 to 100 scale (0 no effect, 100 complete control); for Wheat plant response rating: 500 g ai/ha, visual injury vs untreated controls after approx. 10 days
Method in brief: as §1

[6] = test system: Ryegrass, Italian (Italian ryegrass, Lolium multiflorum); assay: Test A postemergence, Ryegrass, Italian; conditions: Postemergence, 0 to 100 scale (0 no effect, 100 complete control); for Ryegrass, Italian plant response rating: 500 g ai/ha, visual injury vs untreated controls after approx. 10 days
Method in brief: as §1

[7] = test system: Foxtail, Giant (giant foxtail, Setaria faberi); assay: Test A postemergence, Foxtail, Giant; conditions: Postemergence, 0 to 100 scale (0 no effect, 100 complete control); for Foxtail, Giant plant response rating: 500 g ai/ha, visual injury vs untreated controls after approx. 10 days
Method in brief: as §1

[8] = test system: kochia (Bassia scoparia); assay: Test A preemergence, kochia; conditions: Preemergence; for Plant response rating, Kochia: 0 to 100 scale (0 no effect, 100 complete control); for Kochia plant response rating: visual injury on 0 to 100 scale (0 no effect, 100 complete control), approximately 10 days
Method in brief: as §1

[9] = test system: pigweed (Amaranthus retroflexus); assay: Test A postemergence, pigweed; conditions: Postemergence, 0 to 100 scale (0 no effect, 100 complete control); for Pigweed plant response rating: 500 g ai/ha, visual injury vs untreated controls after approx. 10 days
Method in brief: as §1

[10] = test system: kochia (Bassia scoparia); assay: Test A postemergence, kochia; conditions: Postemergence, 0 to 100 scale (0 no effect, 100 complete control); for Kochia plant response rating: 500 g ai/ha, visual injury vs untreated controls after approx. 10 days
Method in brief: as §1

[11] = test system: pigweed (Amaranthus retroflexus); assay: Test A preemergence, pigweed; conditions: for Plant response rating, Pigweed: 0 to 100 scale (0 no effect, 100 complete control); for Pigweed plant response rating: visual injury on 0 to 100 scale (0 no effect, 100 complete control), approximately 10 days
Method in brief: as §1

[12] = test system: ragweed (common ragweed, Ambrosia artemisiifolia); assay: Test A preemergence, ragweed; conditions: Preemergence; for Plant response rating, Ragweed: 0 to 100 scale (0 no effect, 100 complete control); for Ragweed plant response rating: visual injury on 0 to 100 scale (0 no effect, 100 complete control), approximately 10 days
Method in brief: as §1

[13] = test system: galium (catchweed bedstraw, Galium aparine); assay: Test A postemergence, galium; conditions: Postemergence, 0 to 100 scale (0 no effect, 100 complete control); for Galium plant response rating: 500 g ai/ha, visual injury vs untreated controls after approx. 10 days
Method in brief: as §1

[14] = test system: barnyardgrass (Echinochloa crus-galli); assay: Test A postemergence, barnyardgrass; conditions: Postemergence, 0 to 100 scale (0 no effect, 100 complete control); for Barnyardgrass plant response rating: 500 g ai/ha, visual injury vs untreated controls after approx. 10 days
Method in brief: as §1

[15] = test system: barnyardgrass (Echinochloa crus-galli); assay: Test A preemergence, barnyardgrass; conditions: Preemergence; for Plant response rating, Barnyardgrass: 0 to 100 scale (0 no effect, 100 complete control); for Barnyardgrass plant response rating: visual injury on 0 to 100 scale (0 no effect, 100 complete control), approximately 10 days
Method in brief: as §1

[16] = test system: ragweed (common ragweed, Ambrosia artemisiifolia); assay: Test A postemergence, ragweed; conditions: Postemergence, 0 to 100 scale (0 no effect, 100 complete control); for Ragweed plant response rating: 500 g ai/ha, visual injury vs untreated controls after approx. 10 days
Method in brief: as §1

[17] = 125 g ai/ha, visual injury, approx. 10 days
[18] = 125 g ai/ha, visual injury approx. 10 days
[19] = 31 g ai/ha, visual injury, approx. 10 days

Cc1cc(F)c(C(=O)N2CC(C)OC(C)C2)cc1N(S(=O)(=O)C(F)(F)F)S(=O)(=O)C(F)(F)F (stereo not drawn) [Compound 235]
Plant response rating, Corn ([1]; 125 g ai/ha): 0 | Corn plant response rating [1]: 30 | Plant response rating, Blackgrass ([2]; 125 g ai/ha): 0 | Blackgrass plant response rating [2]: 20 | Plant response rating, Ryegrass, Italian [3, 17]: 50 | Ryegrass, Italian plant response rating ([3]; 500 g ai/ha): 90 | Plant response rating, Foxtail, Giant [4, 17]: 10 | Foxtail, Giant plant response rating ([4]; 500 g ai/ha): 10 | Plant response rating, Wheat ([5]; 125 g ai/ha): 20 | Wheat plant response rating [5]: 60 | Plant response rating, Ryegrass, Italian ([6]; 125 g ai/ha): 30 | Ryegrass, Italian plant response rating [6]: 60 | Plant response rating, Foxtail, Giant ([7]; 125 g ai/ha): 20 | Foxtail, Giant plant response rating [7]: 30 | Plant response rating, Kochia [8, 17]: 30 | Kochia plant response rating ([8]; 500 g ai/ha): 50 | Plant response rating, Pigweed ([9]; 125 g ai/ha): 30 | Pigweed plant response rating [9]: 30 | Plant response rating, Kochia ([10]; 125 g ai/ha): 10 | Kochia plant response rating [10]: 30 | Plant response rating, Pigweed [11, 17]: 30 | Pigweed plant response rating ([11]; 500 g ai/ha): 80 | Plant response rating, Ragweed [12, 17]: 40 | Ragweed plant response rating ([12]; 500 g ai/ha): 80 | Plant response rating, Galium ([13]; 125 g ai/ha): 70 | Galium plant response rating [13]: 70 | Plant response rating, Barnyardgrass ([14]; 125 g ai/ha): 0 | Barnyardgrass plant response rating [14]: 60 | Plant response rating, Barnyardgrass [15, 17]: 0 | Plant response rating, Barnyardgrass ([15]; 500 g ai/ha): 0 | Plant response rating, Ragweed ([16]; 125 g ai/ha): 60 | Ragweed plant response rating [16]: 90

Cc1cc(Cl)c(C2=NOC3(CCCC3)C2)cc1N(S(=O)(=O)C(F)(F)F)S(=O)(=O)C(F)(F)F [Compound 186]
Plant response rating, Corn ([1]; 125 g ai/ha): 0 | Corn plant response rating [1]: 30 | Plant response rating, Blackgrass ([2]; 125 g ai/ha): 0 | Blackgrass plant response rating [2]: 20 | Ryegrass, Italian plant response rating ([3]; 125 g ai/ha): 60 | Plant response rating, Ryegrass, Italian ([3]; 500 g ai/ha): 100 | Foxtail, Giant plant response rating ([4]; 125 g ai/ha): 60 | Plant response rating, Foxtail, Giant ([4]; 500 g ai/ha): 100 | Plant response rating, Wheat ([5]; 125 g ai/ha): 0 | Wheat plant response rating [5]: 30 | Plant response rating, Ryegrass, Italian ([6]; 125 g ai/ha): 0 | Ryegrass, Italian plant response rating [6]: 20 | Plant response rating, Foxtail, Giant ([7]; 125 g ai/ha): 0 | Foxtail, Giant plant response rating [7]: 20 | Kochia plant response rating ([8]; 125 g ai/ha): 20 | Plant response rating, Kochia ([8]; 500 g ai/ha): 70 | Plant response rating, Pigweed ([9]; 125 g ai/ha): 0 | Pigweed plant response rating [9]: 50 | Plant response rating, Kochia ([10]; 125 g ai/ha): 10 | Kochia plant response rating [10]: 40 | Pigweed plant response rating ([11]; 125 g ai/ha): 20 | Plant response rating, Pigweed ([11]; 500 g ai/ha): 80 | Ragweed plant response rating ([12]; 125 g ai/ha): 20 | Plant response rating, Ragweed ([12]; 500 g ai/ha): 50 | Plant response rating, Galium ([13]; 125 g ai/ha): 60 | Galium plant response rating [13]: 80 | Plant response rating, Barnyardgrass ([14]; 125 g ai/ha): 10 | Barnyardgrass plant response rating [14]: 20 | Barnyardgrass plant response rating ([15]; 125 g ai/ha): 60 | Plant response rating, Barnyardgrass ([15]; 500 g ai/ha): 100 | Plant response rating, Ragweed ([16]; 125 g ai/ha): 40 | Ragweed plant response rating [16]: 60

CSc1cc(-c2cc(NS(=O)(=O)C(F)(F)F)c(C)cc2C)c(=O)n(C)n1 [Compound 36]
Plant response rating, Corn ([1]; 31 g ai/ha): 0 | Plant response rating, Corn [1, 18]: 0 | Plant response rating, Blackgrass ([2]; 31 g ai/ha): 0 | Plant response rating, Blackgrass [2, 18]: 0 | Plant response rating, Ryegrass, Italian [3, 19]: 0 | Ryegrass, Italian plant response rating ([3]; 125 g ai/ha): 60 | Plant response rating, Foxtail, Giant [4, 19]: 20 | Foxtail, Giant plant response rating ([4]; 125 g ai/ha): 80 | Plant response rating, Wheat ([5]; 31 g ai/ha): 0 | Plant response rating, Wheat [5, 18]: 50 | Plant response rating, Ryegrass, Italian ([6]; 31 g ai/ha): 20 | Plant response rating, Ryegrass, Italian [6, 18]: 10 | Plant response rating, Foxtail, Giant ([7]; 31 g ai/ha): 0 | Plant response rating, Foxtail, Giant [7, 18]: 0 | Plant response rating, Kochia [8, 19]: 0 | Kochia plant response rating ([8]; 125 g ai/ha): 0 | Plant response rating, Pigweed ([9]; 31 g ai/ha): 0 | Plant response rating, Pigweed [9, 18]: 30 | Plant response rating, Kochia ([10]; 31 g ai/ha): 10 | Plant response rating, Kochia [10, 18]: 20 | Plant response rating, Pigweed [11, 19]: 0 | Pigweed plant response rating ([11]; 125 g ai/ha): 10 | Plant response rating, Ragweed [12, 19]: 0 | Ragweed plant response rating ([12]; 125 g ai/ha): 0 | Plant response rating, Galium ([13]; 31 g ai/ha): 20 | Plant response rating, Galium [13, 18]: 40 | Plant response rating, Barnyardgrass ([14]; 31 g ai/ha): 0 | Plant response rating, Barnyardgrass [14, 18]: 0 | Plant response rating, Barnyardgrass [15, 19]: 0 | Barnyardgrass plant response rating ([15]; 125 g ai/ha): 50 | Plant response rating, Ragweed ([16]; 31 g ai/ha): 0 | Plant response rating, Ragweed [16, 18]: 0
